This note sets out measurements from US11000033B2, “Ketone or oxime compound, and herbicide” (NISSAN CHEMICAL CORPORATION, priority 2014, dated 2021).

Common to all, as to format: in vivo
One data set concerns Avena fatua. The data set can be described thus: Test Example 5: herbicidal effect by foliage application, plastic box (symbol I). Conditions: 320 g/ha, 3 weeks after application. In a few lines: (§1)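 Emulsion formulation, diluted with water to the intended rate, was applied uniformly to leaves by small sprayer. Recipients were 14-day greenhouse-grown seedlings (25° C. to 30° C.). Assessment followed at 3 weeks.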

The test system of the next data set is wheat. Kind of data set: Test Example 4: effect on crop by soil treatment (symbol e). The note with it: for Effect on crop grade, e: wheat: application herbicide amount 320 g/ha. The method, boiled down:
(§2)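 Sterilized diluvial soil, spot sowing, ~1.5 cm soil cover; greenhouse 25–30° C.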

Another data set has as its system rice. The data set can be described thus: Test Example 4: effect on crop by soil treatment (symbol b). The note with it: for Effect on crop grade, b: directly sowed rice plant: application herbicide amount 320 g/ha. The method, boiled down: as §2
For another data set, the system named is Cyperus difformis. The data set can be described thus: Test Example 3: herbicidal effect by foliage application, Wagner pot (symbol E). Conditions: application herbicide amount 320 g/ha; for E herbicidal effect grade: Table 24. The method, boiled down:
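Herbicidal activity was rated three weeks after a foliar spray of diluted emulsion concentrate, applied at a predetermined dose to plants grown for 14 days from seed in waterlogged alluvial soil within a 25–30 °C greenhouse.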

A further data set relates to Scirpus juncoides. Kind of data set: Test Example 2: herbicidal activity, application during weed generation in submerged conditions (symbol B). The note with it: Table 23; application herbicide amount 320 g/ha; grade 0-5 by criteria of Test Example 1. In a few lines: (§3)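 Visual herbicidal ratings, taken three weeks after dosing, reflect post-emergence water-surface application to seedlings at one to two leaves. Conditions: co-sown weeds in alluvial soil flooded to 4 cm, greenhouse held at 25° C. to 30° C.; compound given as water-diluted emulsion at a fixed herbicide amount.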

In data set [1] the test system is directly sowed rice plant. The data set can be described thus: Test Example 3: effect on crop by foliage application, Wagner pot (symbol b). The note with it: application herbicide amount 320 g/ha; for b (directly sowed rice plant) effect on crop grade: Table 24. The method, boiled down: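 Steps: fill a 1/10000-are Wagner pot with alluvial soil; add water and mix to submerge at 0.1–0.5 cm depth; sow rice plus Echinochloa crus-galli var. crus-galli, Leptochloa chinensis and Cyperus difformis; grow in a 25–30 °C greenhouse.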

Another data set deals with Monochoria vaginalis. The data set can be described thus: Test Example 2: herbicidal activity, application during weed generation in submerged conditions (symbol C). The note with it: Table 23; application herbicide amount 320 g/ha; grade 0-5 by criteria of Test Example 1. The method, boiled down:
as §3

A further data set deals with transplanted rice plant. Kind of data set: Test Example 1: effect on crop, application before weed generation in submerged conditions (symbol a). The note with it: application herbicide amount 320 g/ha. The method, boiled down:
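Rice at 2.5 leaf stage transplanted into submerged soil (4 cm depth) sown with three weed species; herbicide applied before weed emergence.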

The next data set relates to Chenopodium album. Kind of data set: Test Example 5: herbicidal effect by foliage application, plastic box (symbol O). The note with it: 320 g/ha, 3 weeks after application. In a few lines: as §1
Another data set relates to soybean. Kind of data set: Test Example 4: effect on crop by soil treatment (symbol d). Conditions: for Effect on crop grade, d: soybean: application herbicide amount 320 g/ha. In a few lines: as §2
In another data set the test system is Lolium multiflorum Lam. Kind of data set: Test Example 5: herbicidal effect by foliage application, plastic box (symbol K). The note with it: 320 g/ha, 3 weeks after application. The method, boiled down:
as §1

In data set [2] the test system is Echinochloa oryzacola Vasing. Kind of data set: Test Example 1: herbicidal activity, application before weed generation in submerged conditions (symbol A). Conditions: application herbicide amount 320 g/ha. In a few lines:
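Weed control was rated three weeks after treatment on a 0–5 scale, from 5% or lower up to 90% or more. Pre-emergence water-surface application of diluted emulsion at a predetermined rate was made on the day of sowing, in flooded (4 cm water) pots containing rice seedlings, kept at 25–30 °C under glass.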

In the next data set the test system is corn. The data set can be described thus: Test Example 5: effect on crop by foliage application, plastic box (symbol c). The note with it: 320 g/ha, 3 weeks after application. In a few lines:
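Soil: sterilized diluvial. Container: plastic box, 21 × 13 cm, 7 cm deep. Sowing: spot-like, ~1.5 cm cover. Growth: greenhouse, 25° C. to 30° C.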

For the compound `CC#CC(=O)OC1=C(c2c(C)cc(C)cc2C)C(=O)C(CC(C)=NOC)C1` (centres unmarked) [1-095], the “I: Avena fatua, herbicidal effect (criteria 0-5)” value in the data set on Avena fatua is on record as 5 (Herbicidal ratio of 90% or more (almost completely withered)). In addition, in the data set with wheat (320 g/ha), the “e: wheat, effect grade on crop” value is 4 (Herbicidal ratio of 70% or higher and lower than 90%). Also, the “b: directly sowed rice plant, effect grade on crop” value with rice (320 g/ha) was 5 (Herbicidal ratio of 90% or more (almost completely withered)). Also, the “herbicidal effect on E, grade 0-5” value with Cyperus difformis is 5 (Herbicidal ratio of 90% or more (almost completely withered)). The “Herbicidal effect grade, B: Scirpus juncoides” value (from here on “Herbicidal effect grade, B”) with Scirpus juncoides is 4 (Herbicidal ratio of 70% or higher and lower than 90%). Moreover, in [1], the “effect on crop b (directly sowed rice plant), grade 0-5” value is on record as 5 (Herbicidal ratio of 90% or more (almost completely withered)). Moreover, the “Herbicidal effect grade, C: Monochoria vaginalis” value (“Herbicidal effect grade, C” for short) in the data set with Monochoria vaginalis was 1 (Herbicidal ratio of 5% or higher and lower than 20%). Besides, in the data set with transplanted rice plant, the “Effect grade on crop, a: transplanted rice plant” value was 5 (Herbicidal ratio of 90% or more (almost completely withered)). Also, the “O: Chenopodium album, herbicidal effect (criteria 0-5)” value in the data set on Chenopodium album is reported as 0 (Herbicidal ratio of 5% or lower (almost no effect)). The “d: soybean, effect grade on crop” value in the data set on soybean (320 g/ha) is given as 0 (Herbicidal ratio of 5% or lower (almost no effect)). For the same compound, in the data set with Lolium multiflorum Lam., the “K: Lolium multiflorum Lam., herbicidal effect (criteria 0-5)” value was 5 (Herbicidal ratio of 90% or more (almost completely withered)). Moreover, the “Herbicidal effect grade, A: Echinochloa oryzacola Vasing.” value in data set [2] is listed as 5 (Herbicidal ratio of 90% or more (almost completely withered)). The “c: corn, effect on crop (criteria 0-5)” value in the data set with corn was 5 (Herbicidal ratio of 90% or more (almost completely withered)).

As to `CON=C(CC1CC(O)=C(c2c(C)cc(Br)cc2C)C1=O)C(C)C` (centres unmarked) [9-001], the “I: Avena fatua, herbicidal effect grade” value in the data set with Avena fatua is 5 (Herbicidal ratio of 90% or more (almost completely withered)). Further, in the data set on wheat, the “Effect on crop grade, e: wheat” value is 0 (Herbicidal ratio of 5% or lower (almost no effect)). Further, in the data set on rice, the “Effect on crop grade, b: directly sowed rice plant” value (“Effect on crop grade, b” for short) was 4 (Herbicidal ratio of 70% or higher and lower than 90%). Moreover, the “E herbicidal effect grade” value in the data set on Cyperus difformis is 2 (Herbicidal ratio of 20% or higher and lower than 40%). In addition, the “Herbicidal effect grade, B” value in the data set with Scirpus juncoides is reported as 0 (Herbicidal ratio of 5% or lower (almost no effect)). Moreover, the “b (directly sowed rice plant) effect on crop grade” value in data set [1] is given as 5 (Herbicidal ratio of 90% or more (almost completely withered)). The “Herbicidal effect grade, C” value with Monochoria vaginalis is listed as 0 (Herbicidal ratio of 5% or lower (almost no effect)). Also, the “Effect grade on crop, a: transplanted rice plant” value with transplanted rice plant is 4 (Herbicidal ratio of 70% or higher and lower than 90%). Moreover, in the data set with Chenopodium album, the “O: Chenopodium album, herbicidal effect grade” value is 0 (Herbicidal ratio of 5% or lower (almost no effect)). Further, the “Effect on crop grade, d: soybean” value in the data set with soybean is recorded as 0 (Herbicidal ratio of 5% or lower (almost no effect)). Also, in the data set with Lolium multiflorum Lam., the “K: Lolium multiflorum Lam., herbicidal effect grade” value is listed as 5 (Herbicidal ratio of 90% or more (almost completely withered)). Besides, in data set [2], the “Herbicidal effect grade, A: Echinochloa oryzacola Vasing.” value was 4 (Herbicidal ratio of 70% or higher and lower than 90%). For the same compound, the “c: corn, effect on crop grade” value in the data set on corn is 4 (Herbicidal ratio of 70% or higher and lower than 90%).

For the compound `CON=C(CC1CC(O)=C(c2c(C)cc(Br)cc2C)C1=O)C1CC1` (centres unmarked) [9-002], in the data set on Avena fatua, the “I: Avena fatua, herbicidal effect grade” value is listed as 5 (Herbicidal ratio of 90% or more (almost completely withered)). Moreover, the “Effect on crop grade, e: wheat” value with wheat is recorded as 0 (Herbicidal ratio of 5% or lower (almost no effect)). The “Effect on crop grade, b” value with rice is 5 (Herbicidal ratio of 90% or more (almost completely withered)). In the data set on Cyperus difformis, the “E herbicidal effect grade” value is given as 5 (Herbicidal ratio of 90% or more (almost completely withered)). The “Herbicidal effect grade, B” value in the data set with Scirpus juncoides is listed as 0 (Herbicidal ratio of 5% or lower (almost no effect)). The “b (directly sowed rice plant) effect on crop grade” value in data set [1] is 5 (Herbicidal ratio of 90% or more (almost completely withered)). Besides, the “Herbicidal effect grade, C” value in the data set with Monochoria vaginalis is 0 (Herbicidal ratio of 5% or lower (almost no effect)). Besides, the “Effect grade on crop, a: transplanted rice plant” value in the data set with transplanted rice plant is on record as 5 (Herbicidal ratio of 90% or more (almost completely withered)). The “O: Chenopodium album, herbicidal effect grade” value in the data set on Chenopodium album is given as 0 (Herbicidal ratio of 5% or lower (almost no effect)). Also, the “Effect on crop grade, d: soybean” value with soybean is on record as 0 (Herbicidal ratio of 5% or lower (almost no effect)). Also, the “K: Lolium multiflorum Lam., herbicidal effect grade” value with Lolium multiflorum Lam. is 5 (Herbicidal ratio of 90% or more (almost completely withered)). Further, the “Herbicidal effect grade, A: Echinochloa oryzacola Vasing.” value in [2] is listed as 5 (Herbicidal ratio of 90% or more (almost completely withered)). Further, the “c: corn, effect on crop grade” value with corn was 5 (Herbicidal ratio of 90% or more (almost completely withered)).

As to `CON=C(CC1CC(O)=C(c2c(C)cc(-n3cc(Cl)cn3)cc2C)C1=O)C(C)C` (centres unmarked) [9-004], the “I: Avena fatua, herbicidal effect grade” value in the data set with Avena fatua was 5 (Herbicidal ratio of 90% or more (almost completely withered)). For the same compound, in the data set on wheat, the “Effect on crop grade, e: wheat” value is reported as 0 (Herbicidal ratio of 5% or lower (almost no effect)). The “Effect on crop grade, b” value in the data set with rice is listed as 0 (Herbicidal ratio of 5% or lower (almost no effect)). In addition, the “E herbicidal effect grade” value in the data set with Cyperus difformis is 5 (Herbicidal ratio of 90% or more (almost completely withered)). The “Herbicidal effect grade, B” value with Scirpus juncoides was 2 (Herbicidal ratio of 20% or higher and lower than 40%). Moreover, the “b (directly sowed rice plant) effect on crop grade” value in data set [1] was 5 (Herbicidal ratio of 90% or more (almost completely withered)). Also, the “Herbicidal effect grade, C” value in the data set on Monochoria vaginalis is 0 (Herbicidal ratio of 5% or lower (almost no effect)). For the same compound, in the data set with transplanted rice plant, the “Effect grade on crop, a: transplanted rice plant” value was 5 (Herbicidal ratio of 90% or more (almost completely withered)). The “O: Chenopodium album, herbicidal effect grade” value in the data set with Chenopodium album was 1 (Herbicidal ratio of 5% or higher and lower than 20%). For the same compound, in the data set with soybean, the “Effect on crop grade, d: soybean” value is reported as 0 (Herbicidal ratio of 5% or lower (almost no effect)). For the same compound, the “K: Lolium multiflorum Lam., herbicidal effect grade” value in the data set on Lolium multiflorum Lam. is on record as 5 (Herbicidal ratio of 90% or more (almost completely withered)). The “Herbicidal effect grade, A: Echinochloa oryzacola Vasing.” value in data set [2] was 5 (Herbicidal ratio of 90% or more (almost completely withered)). Further, the “c: corn, effect on crop grade” value with corn is 5 (Herbicidal ratio of 90% or more (almost completely withered)).

In the case of `CON=C(CC1CC(O)=C(c2c(C)cc(C#C[Si](C)(C)C)cc2C)C1=O)C(C)C` (centres unmarked) [9-005], the “I: Avena fatua, herbicidal effect grade” value with Avena fatua is listed as 5 (Herbicidal ratio of 90% or more (almost completely withered)). The “Effect on crop grade, e: wheat” value in the data set on wheat was 0 (Herbicidal ratio of 5% or lower (almost no effect)). The “Effect on crop grade, b” value with rice was 1 (Herbicidal ratio of 5% or higher and lower than 20%). Also, in the data set on Cyperus difformis, the “E herbicidal effect grade” value is 2 (Herbicidal ratio of 20% or higher and lower than 40%). Further, the “Herbicidal effect grade, B” value in the data set with Scirpus juncoides is on record as 0 (Herbicidal ratio of 5% or lower (almost no effect)). Further, the “b (directly sowed rice plant) effect on crop grade” value in [1] is 4 (Herbicidal ratio of 70% or higher and lower than 90%). For the same compound, the “Herbicidal effect grade, C” value in the data set on Monochoria vaginalis was 0 (Herbicidal ratio of 5% or lower (almost no effect)). In addition, the “Effect grade on crop, a: transplanted rice plant” value with transplanted rice plant is 4 (Herbicidal ratio of 70% or higher and lower than 90%). Also, in the data set on Chenopodium album, the “O: Chenopodium album, herbicidal effect grade” value is recorded as 0 (Herbicidal ratio of 5% or lower (almost no effect)). Moreover, the “Effect on crop grade, d: soybean” value with soybean is on record as 0 (Herbicidal ratio of 5% or lower (almost no effect)). The “K: Lolium multiflorum Lam., herbicidal effect grade” value in the data set on Lolium multiflorum Lam. is 5 (Herbicidal ratio of 90% or more (almost completely withered)). Also, the “Herbicidal effect grade, A: Echinochloa oryzacola Vasing.” value in data set [2] is 4 (Herbicidal ratio of 70% or higher and lower than 90%). Also, the “c: corn, effect on crop grade” value in the data set with corn was 3 (Herbicidal ratio of 40% or higher and lower than 70%).
